What was measured:
[1] = target: T1, IRP1 (Mus musculus, UniProt P28271); test: Gel-shift of erythroblasts treated with β-mercaptoethanol; format: biochemical; design: Lysates made from various brain regions of IRP2−/− mice; from tissue; host or cells: mouse brain (cerebellum, forebrain, brain-stem) lysates; details: erythroblasts from wild type mice, high concentrations
T1 sequence (P28271 1-889): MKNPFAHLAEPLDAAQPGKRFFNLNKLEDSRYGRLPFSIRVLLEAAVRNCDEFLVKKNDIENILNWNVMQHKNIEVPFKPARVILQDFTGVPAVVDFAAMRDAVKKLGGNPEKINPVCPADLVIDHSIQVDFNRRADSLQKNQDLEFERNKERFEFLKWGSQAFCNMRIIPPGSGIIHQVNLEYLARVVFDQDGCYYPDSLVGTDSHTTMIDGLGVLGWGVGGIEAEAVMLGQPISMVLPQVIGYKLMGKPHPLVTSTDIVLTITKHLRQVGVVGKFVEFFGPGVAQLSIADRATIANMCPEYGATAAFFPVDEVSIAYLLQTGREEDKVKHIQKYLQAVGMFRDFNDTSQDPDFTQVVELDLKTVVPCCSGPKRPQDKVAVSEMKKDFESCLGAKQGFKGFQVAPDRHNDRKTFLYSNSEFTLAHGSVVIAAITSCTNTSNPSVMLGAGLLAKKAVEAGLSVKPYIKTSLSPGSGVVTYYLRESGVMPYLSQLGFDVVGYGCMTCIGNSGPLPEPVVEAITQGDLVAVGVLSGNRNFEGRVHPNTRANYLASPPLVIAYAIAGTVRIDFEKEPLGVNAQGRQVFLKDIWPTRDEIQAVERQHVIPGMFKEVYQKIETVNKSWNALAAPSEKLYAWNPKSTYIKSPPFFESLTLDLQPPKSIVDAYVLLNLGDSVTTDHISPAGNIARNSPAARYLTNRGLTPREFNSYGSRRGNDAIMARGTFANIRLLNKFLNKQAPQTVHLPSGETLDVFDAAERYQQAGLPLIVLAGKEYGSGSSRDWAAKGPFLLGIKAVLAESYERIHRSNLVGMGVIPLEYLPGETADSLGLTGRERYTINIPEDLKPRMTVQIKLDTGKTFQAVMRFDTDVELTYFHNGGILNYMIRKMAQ
Protocol: (§1) Cells: Embryonic fibroblasts of 13-day old embryos were isolated from wild type, IRP1−/− mice and IRP2−/− mice as described in LaVaute et al. supra. Myc-tagged HEK 293 Tet-on cell line, in which IRP2 expression was inducible, was prepared and cultured as described Bourdon et al., Blood Cells Mol Dis, 31, 247-255 (2003). Erythroblasts were harvested from bone marrow and purified as described in Cooperman et al., Blood, 106, 1084-1091 (2005).
(§2) RNA mobility shift assays: Gel retardation assays were performed as described in Meyron-Holtz et al., EMBO J, 23, 386-395 (2004). Tissue lysates were prepared in an anaerobic chamber as described above in oxygen-depleted lysis buffer containing 10 mM HEPES (pH 7.2), 3 mM MgC12, 40 mM KCl, 5% glycerol, 0.2% Nonidet P-40, 5 mM DTT, 1 mM AEBSF, 10 μg/ml. Leupeptin and complete TM EDTA free protease inhibitor cocktail (Roche Applied Science, Indiana). Lysate (x μl) containing 10 μg of total protein was added to (12.5−x) μl of bandshift buffer containing 25 mM Tris-HCl (pH 7.5) and 40 mM KCl. The samples were incubated for 5 min at room temperature (RT) with 12.5 μl of a reaction cocktail containing 20% glycerol, 0.2 U/μl Super RNAsine (Ambion, Tex.), 0.6 μg/μl yeast t-RNA, 5 mM DTT and 20 nM 32P-labelled IRE from human ferritin H-chain gene in 25 mM Tris-HCl (pH 7.5) and 40 mM KCl. […]

[2] = target: T1, IRP1; test: Gel-shift of brain lysates treated with β-mercaptoethanol; format: biochemical, mice; design: Lysates made from various brain regions of IRP2−/− mice; from tissue; host or cells: mouse brain (cerebellum, forebrain, brain-stem) lysates; details: FIG. 7a
Protocol: Tissue and lysate preparation: Animals were euthanized and tissues were frozen in liquid nitrogen immediately after harvesting, and stored at −80° C. under argon. Experiments were performed on tissues that were pulverized in liquid N2-cooled mortars in an anaerobic chamber, and then lysed in lysis buffer that was deaerated by cyclic freezethaw and air-removal with argon. Nuclei and debris were removed by centrifugation. Preparations of lysates for assays of IRP1 activity, western blotting, carbonyl assay and protein analysis were performed anaerobically.
as §2, with “KCl.” for “KCl. The samples were incubated for 5 min at room temperature (RT) with 12.5 μl of a reaction cocktail containing 20% glycerol, 0.2 U/μl Super RNAsine (Ambion, Tex.), 0.6 μg/μl yeast t-RNA, 5 mM DTT and 20 nM 32P-labelled IRE from human ferritin H-chain gene in 25 mM Tris-HCl (pH 7.5) and 40 mM KCl.”

[3] = target: T1, IRP1; test: Gel-shift of IRP1 in wild type and IRP2−/− mouse embryonic fibroblasts after Tempo1 or DFO and washout; format: cell-based; design: Embryonic fibroblasts of 13-day old embryos were isolated from wild type, IRP1−/− mice and IRP2−/− mice; endogenous in cells; host or cells: mouse embryonic fibroblasts (wild type and IRP2−/−); details: wild type and IRP2−/− mouse embryonic fibroblasts treated 16 hours
Protocol: as §1
RNA mobility shift assays: Gel retardation assays were performed as described in Meyron-Holtz et al., EMBO J, 23, 386-395 (2004). Tissue lysates were prepared in an anaerobic chamber as described above in oxygen-depleted lysis buffer containing 10 mM HEPES (pH 7.2), 3 mM MgC12, 40 mM KCl, 5% glycerol, 0.2% Nonidet P-40, 5 mM DTT, 1 mM AEBSF, 10 μg/ml. Leupeptin and complete TM EDTA free protease inhibitor cocktail (Roche Applied Science, Indiana). Lysate (x μl) containing 10 μg of total protein was added to (12.5−x) μl of bandshift buffer containing 25 mM Tris-HCl (pH 7.5) and 40 mM KCl. The samples were incubated for 5 min at room temperature (RT) with 12.5 μl of a reaction cocktail containing 20% glycerol, 0.2 U/μl Super RNAsine (Ambion, Tex.), 0.6 μg/μl yeast t-RNA, 5 mM DTT and 20 nM 32P-labelled IRE from human ferritin H-chain gene in 25 mM Tris-HCl (pH 7.5) and 40 mM KCl. A measure of 20 μl of this reaction mixture was loaded into a 10% acrylamide/TBE gel, which was run at 200 V for 2.15 h, and then the gel was fixed, dried and exposed for autoradiography.
(§3) To determine whether the effect of Tempo1 on IRP1 activity was kinetically consistent with oxidative disassembly of the iron sulfur cluster, the effect of Tempo1 on aconitase activity was compared to that of the iron chelator, deferiprone (DFO), which activates IRE-binding activity of IRP1 by limiting de novo synthesis and repair of the iron sulfur cluster in IRP1. […] Recovery of aconitase activity was assessed in wild type and IRP2−/− cells.

[4] = target: T2, cytosolic aconitase (Mus musculus, UniProt P28271); test: In-gel aconitase assay in mouse embryonic fibroblast lysates, cytosolic aconitase; format: cell-based; details: assessed 8 hours after removal; mouse embryonic fibroblasts treated 16 hours
T2 construct: Embryonic fibroblasts of 13-day old embryos were isolated from wild type, IRP1−/− mice and IRP2−/− mice; endogenous in cells; host or cells: mouse embryonic fibroblasts (wild type and IRP2−/−)
T2 sequence (P28271 1-889): T1 sequence (P28271 1-889)
Protocol: as §1
Aconitase assay: Aconitase activity gels for human lysates were performed as described in Tong et al., infra, and aconitase activity gels for mouse lysate were performed with the following modifications. The gel was composed of a separating gel containing 6% acrylamide, 132 mM Tris base, 66 mM borate, 3.6 mM citrate, and a stacking gel containing 4% acrylamide, 66 mM Tris base, 33 mM borate, 3.6 mM citrate. The running buffer contains 25 mM Tris pH 8.3, 96 mM glycine, and 3.6 mM citrate. Electrophoresis were carried out at 170 V at 4° C. Spectral aconitase activity was measured by following the method of Fillebeen et al., infra, using cis-aconitate as the substrate.
To confirm that nitroxide radicals activate IRP1 binding by disassembly of the iron-sulfur cluster, we performed in-gel aconitase assays to determine whether Tempo1 decreased the activity of cytosolic aconitase. […] The band that represented the cytosolic aconitase was readily identified by its absence in lysates from IRP1−/− cells. […]
as §3

Row | IRE-binding activity of IRP1 [3] | recovery of cytosolic aconitase activity [4] | SMILES | additional IRE binding activity of IRP1 [1] | IRE binding activity recruited [2]
1 | – | – | OCCS [β-mercaptoethanol] | did not activate additional | significant increases
2 | activated | little recovery | Cc1c(O)c(=O)ccn1C [DFO, deferiprone, reference compound] | – | –
